In patent US10149644B2, “Curcumin derivatives for amyloid-β plaque imaging” (The General Hospital Corporation, priority 2008, dated 2018):
Like-named read-outs stand apart in the source and are kept apart here.

Experiments:
Aβ plaques = assay: AD tissue staining of APP-PS1 brain sections; conditions: 25 micron sections, 12-month old APP-PS1 mice
Description: The inventors conducted tissue staining with 25 micron brain sections from 12-month old APP-PS1 mice by all the compounds listed in FIG. 12.

Aβ40 aggregates [1] = target: T1, Aβ40 aggregates (Homo sapiens, UniProt P05067); conditions: reported values used for comparison; read-out: Kd towards Aβ aggregates (literature); cited from earlier work
T1 construct: Synthetic amyloid-b protein (1-40) was purchased from rPeptide; purchased rPeptide (Bogart, Ga.)

Aβ40 aggregates [2] = target: T1, Aβ40 aggregates; assay: Aβ aggregates detection in solution by fluorescence spectrum; type: binding; conditions: 250 nM compound, 250 nM Aβ40 aggregates, PBS
Description: They then incubated 250 nM of the compounds with 250 nM of Aβ40 aggregates (calculation based on monomer) in PBS for one minute, and then measured the fluorescence spectra of the solutions.

senile plaques = assay: Ex vivo histological correlation; type: in vivo, mice; conditions: 10 mg/kg i.v.
Description: 19 month-old mouse was injected CRANAD-2 (10.0 mg/kg), and was sacrified after perfusion with 4% formaldehyde. The brain was taken and embedded in OCT. For histology, the brain was sliced into 25μ slices, and co-stained with thioflavin S as described above. To obtain ex vivo confirmation of the probe binding, mice at different ages were i.v injected with 10 mg/kg of CRANAD-2 probe, perfused and scarified at 1 h after injection.

Aβ40 aggregates [3] = target: T1, Aβ40 aggregates; assay: In vitro Aβ aggregates binding constant measurement; conditions: Aβ40 aggregates in PBS, fluorescence intensity, nonlinear one-site regression; read-out: Binding constant (Kd) towards Aβ aggregates
Description: […] The Kd binding curve was generated by software Prism 3.0 with nonlinear one-site binding regression.
Binding constant (Kd) of CRANAD-2 towards Aβ aggregates was measured by fluorescence intensity (F.I.) with various concentrations of the prob.

[4] = Fluorescence emission properties of the probes; type: physicochemical; conditions: probe alone, methanol (FIG. 2)
Description: Reagents used for synthesis were purchased from Aldrich without further purification. Column chromatography was performed on silica gel (SiliCycle Inc., 60 Å, […]) slurry packed into glass columns. Thioflavin S was purchased from Aldrich. Synthetic amyloid-b protein (1-40) was purchased from rPeptide (Bogart, Ga., 30622) and aggregates for in vitro studies were generated followed the reported procedure. BSA was purchased from Sigma, and human serum was obtained from Invitrogen (type AB). ^1H and ^13C NMR spectra were recorded at 400 MHz and 100 MHz respectively, and are reported in ppm downfield from tetramethylsilane. Fluorescence studies were carried out with F-4500 Fluorescense Spectrophotometer. Fluorescence quantum yields were determined using aqueous solution of Cy5.5-maleimide as a standard (y=0.23). High resolution mass spectra were obtained at the Harvard University, Department of Chemistry Instrumentation Facility. Transgenic Tg2576 mice {45} and littermates were purchased from Taconic Farm, Balb/c mice for BBB penetrating test were obtained from Jackson Laboratory, and the experiment procedure was approved by Massachusetts General Hospital. In vivo imaging was recorded on Kodak Imaging Station 2000MM.
Furthermore, by comparing the fluorescence intensity in methanol, the quantum yield of CRANAD-2 was significant higher than that of curcumin (FIG. 2). […] Additionally, these modifications produced a large stokes shift and improved quantum yield of CRANAD-2. The synthesized compound produced the longest emission and the largest stokes shift among the existing probes for senile plaque detection {3}.

[5] = cited from earlier work

T1 sequence (P05067 672-711 limits assumed): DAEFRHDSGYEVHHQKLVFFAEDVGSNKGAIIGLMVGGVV

[11CH3]Nc1ccc(-c2nc3ccc(O)cc3s2)cc1 [PiB]
Staining of plaques in brain sections (Aβ plaques): stained the plaques brightly

N#CC(C#N)=Cc1ccc(-c2ccc(-c3ccc(O)cc3)s2)s1 [NIAD-4]
Kd (Aβ40 aggregates [1]): 10 nM

Cc1ccc2c(c1)sc(-c1ccc(N(C)C)cc1)[n+]2C.[Cl-] [Thioflavin T]
FI amplification with Aβ40 aggregates (Aβ40 aggregates [2]): 72 fold | Fluorescence intensity change with Aβ40 aggregates (Aβ40 aggregates [2]; one minute): intensity increases | Staining of plaques in brain sections (Aβ plaques): stained the plaques brightly

COc1cc(C=CC2=CC(C=Cc3ccc(O)c(OC)c3)=[O+][B-](F)(F)O2)ccc1O [CRANAD-1, 1,7-Bis-(4-hydroxy-3-methoxyphenyl)-hepta-1,6-diene-2′,2′-difluoro-1′,3′-dioxaboryl-3,5-dione]
Labelling of senile plaques ex vivo after i.v. injection (senile plaques; 11-month old transgenic and wild-type mice, thioflavin S staining): could not find obvious senile plaques | Labelling of senile plaques ex vivo after i.v. injection (senile plaques; 19-month old transgenic mice): can penetrate BBB and label senile plaques in vivo | Kd (Aβ40 aggregates [3]): 1 nM

COc1cc(C=CC(=O)CC(=O)C=Cc2ccc(O)c(OC)c2)ccc1O [curcumin, 1,7-bis(4-hydroxy-3-methoxyphenyl)-1,6-heptadiene-3,5-dione]
Fluorescence intensity change with Aβ40 aggregates (Aβ40 aggregates [2]; one minute): intensity increases | Wavelength shift with Aβ40 aggregates (Aβ40 aggregates [2]; one minute): wavelength blue-shifts | Staining of plaques in brain sections (Aβ plaques): stained the plaques brightly | Stokes shift [4]: 50 nm | λmax(em) [4]: 560 nm | λmax(ex) [4]: 510 nm | log P (literature) [5]: < 2
